Source: patent publication US20080234244A1, “CU[…] AND USES THEREOF” (priority 2007, published 2008)

How the values were obtained:
[1] = system: Human leukemia cell lines CCRF-CEM, K562, MOLT-4, RPMI-8226 and SR; test: Cell proliferation assay using SRB, 5 human leukemia cell lines; format: cell-based; conditions: 48 hours treatment, range over the 5 cell lines, read-out: GI50 (growth inhibition), all leukemia cell lines
Description: (§1) Human leukemia cell lines CCRF-CEM, K562, MOLT-4, RPMI-8226 and SR, purchased from the National Cancer Institute (NCI), were cultured in RPMI 1640 medium supplemented with 5% (v/v) fetal […] and 100 units/ml penicillin and 100 units/ml streptomycin in a humidified 5% CO2 atmosphere at 37° C.
(§2) All 5 human leukemia cells were screened by the cell proliferation assay using SRB to quantitative cell protein mass following cucurbitacin B treatment. The experiments were repeated in triplicate. Appropriate number of cells (depends on the doubling time of cells) were seeded into a 96-well tissue culture plate and growth in the indicated medium in presence of different dosages of cucurbitacin B for 2 days. Afterwards 25 μl 80% TCA reagent was added into each well to fix the cells and the plates were incubated at 4° C. at least for 1 hour. Then the plates were washed with tap water and air dried. […] The plates were air dried and dissolved by 100 μl 10 mM Trizma-base solution and the absorbance was measured at 515 nm using FLUOstar OPTIMA equipment.
(§3) Appropriate number of cell density were seeded into a 96 well culture plate and treated with different doses of cucurbitacin B for 2 days. The growth inhibition effects of cucurbitacin B on the cells were detected using SRB.

K562 = test: Cell proliferation assay using SRB, K562; format: cell-based; conditions: Homo sapiens, K562, 48 hours treatment, read-out: GI50 (growth inhibition)
Description: as §1, §2, §3

K562 cells [2] = test: Flow cytometry for apoptosis analysis (Annexin V / PI); format: cell-based, human; conditions: 80 nM, 48 hours, K562, Anx.V/PI
Description: (§4) 10^5/ml K562 cells were treated with cucurbitacin B in the presence of complete medium containing 10% FBS for 48 hours. The changes in cell morphology were visualized using Leica DMIL (Leica Microsystem). Cells were harvested and rinsed twice with ice-cold PBS (pH7.4) and a total 2.5×10^5 K562 cells were stained with 10 μl Annexin V and 10 μl propidium iodide in 100 μl 1× binding buffer for 15 minutes in dark and then subjected to apoptosis analysis with FACSCalibar Flow cytometer system (FACS Calibur BD Flow Cytometer).
Appropriate number of cell density were seeded into T-25 culture flask and treated with different doses of cucurbitacin B for 2 days. The apoptotic effects of cucurbitacin B on the cells were detected using Flow Cytometry analysis after stained with Anx.V and PI for 15 minutes. […] Cucuribitacin B induced apoptosis in a dose dependent manner, among them, 80 nM induced the highest apoptotic effect in K562 cells, with over 50% cells in apoptotic population and 10% cells in the necrotic population (late apoptotic and necrotic phase). The effect of cucurbitacin B on apoptosis and cell cycle profile in K562 cells were analyzed using flow cytometry, as depicted in FIG. 3.

K562 cells [3] = test: Cell morphology by microscopy (Leica DMIL, 400x); format: cell-based, human; conditions: 48 hours
Description: as §4
After 48 hours of cucurbitacin B treatment, the cells were viewed using a Leica DMIL microscope at 400× magnification. […] However, the treated cells lost the rounded shape and shrank in size at the highest dose of cucurbitacin B used (80 nM).

K562 cells [4] = test: Flow cytometry for cell cycle analysis (PI); format: cell-based, human; conditions: 80 nM, 48 hours, K562, serum starved 24 hours
Description: K562 cells were serum starved for 24 hours prior to cucurbitacin B treatment. After 48 hours of treatment, the cells were collected and rinsed twice with phosphate-buffer saline and fixed with 80% ice-cold ethanol for 1 hour at 4° C. overnight.
Then, the cells were stained with propidium iodine at 1 mg/ml for 15 minutes at room temperature. The stained cells were analyzed by flow cytometry (FACS Calibur BD Flow Cytometer)
Appropriate numbers of cell density were serum starved for 24 hours prior to treatment with different doses of cucurbitacin B for 2 days. The cell cycle analysis profile of K562 cells after cucurbitacin B treatment were detected using Flow Cytometry analysis after fixed with 80% ice-cold ethanol at 4° C. and then stained with PI for 15 minutes.

[5] = system: Stat3 activation in K562 cells; test: Western blot of phosphorylated and total Stat3; format: cell-based, human; conditions: 50 μM
Description: (§5) K562 leukemia cells were serum starved for 18 hours prior to cucurbitacin B treatment. The cells were incubated at a 75-mm culture flask filled with 10 ml growth medium (RPMI with 10% FBS and 1% PS) at the cell density of 1×10^5 cells/ml in the presence or absence of cucurbitacin B for various time intervals. The drug treatment were terminated by centrifugation at 1500 rpm for 5 minutes and the cells were rinsed twice with phosphate-buffered saline and lysed at 4° C. in a lysis buffer containing 50 mM Tris-HCl, pH7.5, […], 5 mM EDTA, 40 mM NaP2O7, 1% Triton X-100, 1 mM dithiothreitol, […], 100 μM phenylmethylsulfonyl fluoride, 2 μg/ml leupeptin, 4 μg/ml aprotinin and 0.7 μg/ml pepstatin. The insoluble protein lysate were removed by centrifugation for 10 minutes at 13000 rpm. Fifteen micrograms of protein lysate was resolved using SDS-polyacryamide gel electrophoresis (PAGE) (usually 8%-12% polyacrylamide gel) and then subjected to western blot analysis. Western blots were performed with antibodies specific for phosphorylated and total Stat3, c-Raf, Mek, and Erk. The blots were developed with the Enhanced Chemiluminescence Plus (ECL Plus) detection system (Amersham).
15 μg cell lysate of each sample was separated in 8% SDS-PAGE followed by immuno-blotting with anti-Stat3 antibodies to detect the phosphorylated form of Stat3 as well as its total expression level.
Cells were serum starved for 18 hours followed by treated with 50 μM cucurbitacin B for 10 minutes, 30 minutes, 1 hour and 4 hours, respectively. 15 μg cell lysate of each sample was separated in 8% SDS-PAGE followed by immuno-blotting with anti-Stat3 antibodies to detect the phosphorylated form of Stat3 as well as its total expression level.

[6] = system: c-Raf activation in K562 cells; test: Western blot of phosphorylated and total c-Raf; format: cell-based, human; conditions: 50 μM, 5 minutes treatment
Description: as §5, with “The blots were developed with the Enhanced Chemiluminescence Plus (ECL Plus) detection system (Amersham).” left out
(§6) In order to further investigate if cucurbitacin B block the Stat3 activation is truly through Erk pathway in K562 cells, the ability of cucurbitacin B to inhibit the Ras/Raf/Mek/Erk pathway was determined by measuring Ras-GTP, phosphorylation of c-Raf, Mek1/2, Erk1/2 and Elk-1 in K562 cells. […]

[7] = system: Mek1/2 activation in K562 cells; test: Western blot of phosphorylated and total Mek1/2; format: cell-based, human; conditions: 50 μM, 5 minutes treatment
Description: as §5, with “The blots were developed with the Enhanced Chemiluminescence Plus (ECL Plus) detection system (Amersham).” left out
as §6

[8] = system: Erk1/2 activation in K562 cells; test: Western blot of phosphorylated and total Erk1/2; format: cell-based, human; conditions: 50 μM, 5 minutes treatment
Description: as §5, with “The blots were developed with the Enhanced Chemiluminescence Plus (ECL Plus) detection system (Amersham).” left out
as §6

[9] = system: Elk-1 activation in K562 cells; test: Phosphorylation of Elk-1; format: cell-based, human; conditions: 50 μM, 5 minutes treatment
Description: In order to further investigate if cucurbitacin B block the Stat3 activation is truly through Erk pathway in K562 cells, the ability of cucurbitacin B to inhibit the Ras/Raf/Mek/Erk pathway was determined by measuring Ras-GTP, phosphorylation of c-Raf, Mek1/2, Erk1/2 and Elk-1 in K562 cells. The cells were incubated with 50 μM cucurbitacin B for the indicated time intervals (2 minutes, 5 minutes, 10 minutes, 30 minutes, 1 hour and 4 hours). 15 μg cell lysates were subjected to western blot analysis for phosphorylation and total c-Raf, Mek1/2, Erk1/2.

[10] = system: Raf/Mek/Erk pathway in K562 cells; test: Western blot, Raf/Mek/Erk pathway as a whole; format: cell-based, human; conditions: 50 μM, after 4 hours of treatment
Description: as §5, with “The blots were developed with the Enhanced Chemiluminescence Plus (ECL Plus) detection system (Amersham).” left out
as §6

[11] = system: Ras-GTP activation in K562 cells; test: GTPase pull-down assay (GST-Raf1-RBD), Ras-GTP content; format: cell-based, human; conditions: 50 μM, 2 minutes to 4 hours
Description: Lysate with 500 μg protein were used to determined the Ras-GTP content by the Glutathione S-transferase (GST)-RBD (Ras-binding domain of Raf) pull down assay. The treated and control cells were lysed in lysis buffer (25 mMTris-HCl, pH7.5, 150 mM NaCl, 5 mMMgCl2, 1% NP-40, 1 mM DTT and 5% glycerol) for 5 minutes at 4° C. Soluble cell lysates were obtained by centrifuged at 17000 g for 5 minutes. 500 μg cell lysate were collected and incubated with 80 μg GST-Raf1-RBD in 50 mM Tris-HCl, pH7.2, 150 mMNaCl, 0.5% Triton X-100, 5 mMMgCl2, 1 mMDTT and 10% glycerol for 1 hour at 4° C. The beads were washed with lysis buffer for 3 times and then resuspended and boiled in 2× sample buffer at 100° C. for 5 minutes. 25 μl supernatants were collected by centrifuged at 7200 g for 2 minutes and then resolved in 15% SDS-PAGE followed by western blot analysis using anti-Ras antibody.
In order to further investigate if cucurbitacin B block the Stat3 activation is truly through Erk pathway in K562 cells, the ability of cucurbitacin B to inhibit the Ras/Raf/Mek/Erk pathway was determined by measuring Ras-GTP, phosphorylation of c-Raf, Mek1/2, Erk1/2 and Elk-1 in K562 cells. The cells were incubated with 50 μM cucurbitacin B for the indicated time intervals (2 minutes, 5 minutes, 10 minutes, 30 minutes, 1 hour and 4 hours). […]

## CC(=O)OC(C)(C)/C=C/C(=O)[C@](C)(O)C1[C@H](O)C[C@@]2(C)C3CC=C4C(C[C@H](O)C(=O)C4(C)C)[C@]3(C)C(=O)C[C@]12C (some centres unmarked) [cucurbitacin B]
[1]
  GI50: 15.6 to 35.3 nM
K562
  GI50: 15.6 nM
K562 cells [2]
  cells in apoptotic population: over 50%
  cells in the necrotic population (late apoptotic and necrotic phase): 10%
K562 cells [3]; 20 nM and 40 nM
  change in cell morphology: increase in cell size
K562 cells [3]; 80 nM
  change in cell morphology: shrinkage of cell size
K562 cells [4]
  percentage of cells in the G2/M phase: 70%
[5]
  time of peak inhibition of Stat3 activation: 4 h
[5]; 10 minutes to 30 minutes
  inhibition of Stat3 activation, time course: No significant change
[5]; 1 hour treatment
  inhibition of Stat3 activation, time course: inhibited Stat3 activation
[5]; 4 hours, only the highest of 1, 5, 50 μM
  inhibition of Stat3 activation (phospho-Stat3): significant inhibited
[6]
  inhibition of activation of c-Raf: significantly inhibited
[7]
  inhibition of activation of Mek1/2: significantly inhibited
[8]
  inhibition of activation of Erk1/2: significantly inhibited
[9]
  inhibition of activation of Elk-1: significantly inhibited
[10]
  inhibition of the Raf/Mek/Erk pathway: Complete inhibition
[11]
  change of Ras-GTP activation: no significant change
